Reference: BindingDB's records for doi:10.1021/jm0409019 (Institute of Chemical Sciences and Engineering, 2005)

How the values were obtained:
[1] = target: alpha-mannosidase (Canavalia ensiformis); test: Binding affinity towards alpha-Mannosidase isolated from jack bean
[2] = target: alpha-mannosidase (Canavalia ensiformis); test: Inhibition of alpha-Mannosidase isolated from Jack bean
[3] = target: alpha-mannosidase (Canavalia ensiformis); test: Binding affinity towards alpha-Mannosidase isolated from Jack bean
[4] = target: alpha-mannosidase (Canavalia ensiformis); test: Concentration of compound inhibiting alpha-Mannosidase isolated from Jack bean

SMILES | Ki [1] [µM] | IC50 [2] [µM] | Ki [3] [µM] | IC50 [4] [µM]
O[C@H]1[C@@H](O)CN[C@@H]1CNC1CCc2ccccc21 (stereo partly drawn) [(2R,3R,4S)-2-((R)-Indan-1-ylaminomethyl)-pyrrolidine-3,4-diol] |  |  | 2.3 | 17
O=C(NCC(NC[C@H]1NC[C@H](O)[C@@H]1O)c1ccccc1)c1cccc(Br)c1 (stereo partly drawn) [3-Bromo-N-{2-[((2R,3R,4S)-3,4-dihydroxy-pyrrolidin-2-ylmethyl)-amino]-2-phenyl-ethyl}-benzamide] |  |  |  | 89

Other lines, results leading:

Ki [1] [µM] | IC50 [2] [µM] | Ki [3] [µM] | IC50 [4] [µM] | SMILES
16 | 58 |  |  | O[C@H]1[C@@H](O)CN[C@@H]1CNC(COCc1ccccc1)c1ccccc1 (stereo partly drawn) [(2R,3R,4S)-2-[((R)-2-Benzyloxy-1-phenyl-ethylamino)-methyl]-pyrrolidine-3,4-diol]
 |  | 1.35 | 4.2 | OCC(NC[C@H]1N[C@H](CO)[C@H](O)[C@@H]1O)c1ccccc1 (stereo partly drawn) [(2R,3S,4R,5R)-2-Hydroxymethyl-5-[((R)-2-hydroxy-1-phenyl-ethylamino)-methyl]-pyrrolidine-3,4-diol]
 |  |  | 110 | O[C@H]1[C@@H](O)CN[C@@H]1CN[C@H](c1ccccc1)[C@@H](O)c1ccccc1 [(2R,3R,4S)-2-[((S)-Phenyl-1-(R)-2-hydroxy-2-phenyl-ethylamino)-methyl]-pyrrolidine-3,4-diol]
 |  |  | 128 | O[C@H]1[C@@H](O)CN[C@@H]1CN[C@@H](c1ccccc1)[C@H](O)c1ccccc1 [(2R,3R,4S)-2-[((R)-Phenyl-1-(S)-2-hydroxy-2-phenyl-ethylamino)-methyl]-pyrrolidine-3,4-diol]
